Tests used:
[1] = biological target: T1, 5-hydroxytryptamine receptor 1A (Rattus norvegicus, UniProt P19327); assay: biochemical
T1 sequence (P19327 whole entry): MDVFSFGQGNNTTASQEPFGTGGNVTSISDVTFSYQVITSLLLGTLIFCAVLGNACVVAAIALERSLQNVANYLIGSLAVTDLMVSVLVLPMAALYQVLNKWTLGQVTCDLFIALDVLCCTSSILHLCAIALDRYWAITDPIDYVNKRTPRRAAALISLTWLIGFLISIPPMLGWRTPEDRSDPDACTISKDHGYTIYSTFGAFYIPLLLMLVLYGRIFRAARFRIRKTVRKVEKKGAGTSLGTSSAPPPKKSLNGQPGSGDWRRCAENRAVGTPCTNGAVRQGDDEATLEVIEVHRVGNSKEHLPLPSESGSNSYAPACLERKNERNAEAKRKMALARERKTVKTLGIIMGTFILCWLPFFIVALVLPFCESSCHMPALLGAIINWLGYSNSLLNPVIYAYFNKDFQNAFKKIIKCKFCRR
Description: In vitro binding affinity to 5-hydroxytryptamine 1A receptor in rat hippocampal homogenate by [125I](R)-(+)-trans-8-OH-PIPAT displacement.

[2] = biological target: T1, 5-hydroxytryptamine receptor 1A; assay: biochemical; remark: listed apart in the source
Description: In vitro binding affinity to 5-hydroxytryptamine 1A receptor using [125I](R)-(+)-trans-8-OH-PIPAT as radioligand in rat hippocampal homogenate

Description for Rattus norvegicus: Tested for the dissociation constant for [125I]MPPI to rat hippocampal homogenates

| SMILES | Ki [1] | Kd (Rattus norvegicus) | IC50 [2] |
| --- | --- | --- | --- |
| CCCCCCc1ccc(C(=O)N(CCN2CCN(c3ccccc3OC)CC2)c2ccccn2)cc1 | 0.0579 µM | – | – |
| CCCCCc1ccc(C(=O)N(CCN2CCN(c3ccccc3OC)CC2)c2ccccn2)cc1 | 0.075 µM | – | – |
| CCCCc1ccc(C(=O)N(CCN2CCN(c3ccccc3OC)CC2)c2ccccn2)cc1 | 0.0132 µM | – | – |
| CCCCCCCc1ccc(C(=O)N(CCN2CCN(c3ccccc3OC)CC2)c2ccccn2)cc1 | 0.0818 µM | – | – |
| CCCc1ccc(C(=O)N(CCN2CCN(c3ccccc3OC)CC2)c2ccccn2)cc1 | 0.0103 µM | – | – |
| COc1ccccc1N1CCN(CCN(C(=O)c2ccc(CCl)cc2)c2ccccn2)CC1 | 0.0035 µM | – | – |
| COc1ccccc1N1CCN(CCN(C(=O)c2ccc(NC(=O)CCl)cc2)c2ccccn2)CC1 | 0.022 µM | – | – |
| COc1ccccc1N1CCN(CCN(C(=O)c2ccc(C(C)(C)C)cc2)c2ccccn2)CC1 | 0.027 µM | – | – |
| COc1ccccc1N1CCN(CCN(C(=O)c2ccc(N=[N+]=[N-])c(I)c2)c2ccccn2)CC1 | 0.025 µM | – | – |
| COc1ccccc1N1CCN(C[C@@H](C(=O)NC(C)(C)C)c2ccccc2)CC1 | – | – | 0.015 µM |

Continued, values first:

| Ki [1] | Kd (Rattus norvegicus) | IC50 [2] | SMILES |
| --- | --- | --- | --- |
| 0.0161 µM | – | – | COc1ccccc1N1CCN(CCN(C(=O)c2cccc(C)c2)c2ccccn2)CC1 |
| 0.0177 µM | – | – | COc1ccccc1N1CCN(CCN(C(=O)c2ccc(N)c(I)c2)c2ccccn2)CC1 |
| 0.0022 µM | – | – | COc1ccccc1N1CCN(CCN(C(=O)c2ccc(C)cc2)c2ccccn2)CC1 |
| 0.01 µM | – | – | COc1ccccc1N1CCN(CCN(C(=O)c2ccc(N)cc2)c2ccccn2)CC1 |
| 0.0032 µM | 0.0003 µM | – | COc1ccccc1N1CCN(CCN(C(=O)c2ccc(F)cc2)c2ccccn2)CC1 |
| – | 0.0003 µM | – | COc1ccccc1N1CCN(CCN(C(=O)c2ccc(I)cc2)c2ccccn2)CC1 |
| 0.0093 µM | – | – | CCc1ccc(C(=O)N(CCN2CCN(c3ccccc3OC)CC2)c2ccccn2)cc1 |
| 0.0025 µM | – | – | COc1ccccc1N1CCN(CCN(C(=O)c2ccccc2)c2ccccn2)CC1 |

— ChEMBL document CHEMBL1127311, “Derivatives of 4-(2'-methoxyphenyl)-1-[2'-(N-2"-pyridinyl-p-iodobenzamido)ethyl]pipera zine (p-MPPI) as 5-HT1A ligands” (J Med Chem, 1994)
